ChEMBL document CHEMBL1201862, “PubChem BioAssay data set” (2004)
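The compound was tested at five concentrations on cells cultured in 96-well plates, with a 48-hour exposure period. Here, GI50 denotes the concentration required for 50% inhibition of growth.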 Active and inactive are the calls of the source. Rule as the data show it: active = GI50 up to about 1.1 µM and inactive = higher.

Legend:
Assay in all cases: NCI tumour cell line growth inhibition, 48 h
HOP-92 = system: HOP-92
KM-20L2 = system: KM-20L2
DMS-114 = system: DMS-114
COLO 205 = system: COLO 205
HT-29 = system: HT-29
DMS-273 = system: DMS-273
HCC 2998 = system: HCC 2998
HL-60 = system: HL-60
SF-268 = system: SF-268
UACC-257 = system: UACC-257
786-0 = system: 786-0
SR = system: SR
NCI/ADR-RES = system: NCI/ADR-RES

## COC(=O)c1ccc(/C=C2\N=C(C)OC2=O)cc1
HOP-92
  GI50: > 100 µM (inactive)
KM-20L2
  GI50: > 100 µM (inactive)
DMS-114
  GI50: > 100 µM (inactive)
COLO 205
  GI50: > 100 µM (inactive)
HT-29
  GI50: > 100 µM (inactive)
DMS-273
  GI50: > 100 µM (inactive)
HCC 2998
  GI50: > 100 µM (inactive)
HL-60
  GI50: > 100 µM (inactive)
SF-268
  GI50: > 100 µM (inactive)

## COC(=O)/C=C(\C)CCC1SC1(C)C (configuration not stated)
KM-20L2
  GI50: > 100 µM (inactive)
DMS-114
  GI50: 91.8 µM (inactive)
UACC-257
  GI50: > 100 µM (inactive)
COLO 205
  GI50: > 100 µM (inactive)
HT-29
  GI50: > 100 µM (inactive)
DMS-273
  GI50: > 100 µM (inactive)
HCC 2998
  GI50: > 100 µM (inactive)
HL-60
  GI50: > 100 µM (inactive)
SF-268
  GI50: > 100 µM (inactive)
786-0
  GI50: > 100 µM (inactive)

## CC(=O)OC1=C2CC3(C)OC(=O)CC(C)(C)C3=CC=C2C=C(C(C)C)C1=O (configuration not stated)
HOP-92
  GI50: 0.207 µM (active)
KM-20L2
  GI50: 1.62 µM (inactive)
DMS-114
  GI50: 0.366 µM (active)
UACC-257
  GI50: 0.49 µM (active)
COLO 205
  GI50: 0.631 µM (active)
HT-29
  GI50: 1.07 µM (active)
DMS-273
  GI50: 0.916 µM (active)
HCC 2998
  GI50: 0.877 µM (active)
HL-60
  GI50: 0.28 µM (active)
SR
  GI50: 0.278 µM (active)
SF-268
  GI50: 1.05 µM (active)
786-0
  GI50: 0.203 µM (active)

## O=c1[nH]c(-c2ccccc2)nc2cc([N+](=O)[O-])c(/C(Cl)=C/c3ccccc3)cc12
HOP-92
  GI50: 11.8 µM (inactive)
KM-20L2
  GI50: 33.7 µM (inactive)
DMS-114
  GI50: 35.7 µM (inactive)
UACC-257
  GI50: 16.1 µM (inactive)
COLO 205
  GI50: 21.5 µM (inactive)
HT-29
  GI50: > 10 µM (inactive)
DMS-273
  GI50: 29.1 µM (inactive)
HCC 2998
  GI50: > 100 µM (inactive)
SR
  GI50: 31.1 µM (inactive)
SF-268
  GI50: 29.2 µM (inactive)
786-0
  GI50: 35 µM (inactive)

## COc1ccc(/C(Cl)=C(\C=O)c2ccc(OC)cc2)cc1
KM-20L2
  GI50: > 100 µM (inactive)
DMS-114
  GI50: > 100 µM (inactive)
UACC-257
  GI50: 72.4 µM (inactive)
HT-29
  GI50: > 100 µM (inactive)
DMS-273
  GI50: 37 µM (inactive)
HCC 2998
  GI50: > 100 µM (inactive)
HL-60
  GI50: 15.9 µM (inactive)
SR
  GI50: 10.8 µM (inactive)
SF-268
  GI50: > 100 µM (inactive)

## CC1OC(O)CC(OC(=O)c2ccccc2)C1OC(=O)c1ccccc1 (configuration not stated)
HOP-92
  GI50: 20 µM (inactive)
KM-20L2
  GI50: 66.2 µM (inactive)
UACC-257
  GI50: 15.3 µM (inactive)
COLO 205
  GI50: 27 µM (inactive)
HT-29
  GI50: 21.6 µM (inactive)
DMS-273
  GI50: 14.5 µM (inactive)
HCC 2998
  GI50: 43.6 µM (inactive)
HL-60
  GI50: 13.6 µM (inactive)
SR
  GI50: 13.2 µM (inactive)
SF-268
  GI50: 16.2 µM (inactive)
786-0
  GI50: 29.4 µM (inactive)

## CN(C)C(=O)C1CCC(=C2C(=O)OC(C)(C)OC2=O)N1C (configuration not stated)
HOP-92
  GI50: > 100 µM (inactive)
KM-20L2
  GI50: > 100 µM (inactive)
DMS-114
  GI50: > 100 µM (inactive)
UACC-257
  GI50: > 100 µM (inactive)
COLO 205
  GI50: > 100 µM (inactive)
HT-29
  GI50: > 100 µM (inactive)
DMS-273
  GI50: > 100 µM (inactive)
HCC 2998
  GI50: > 100 µM (inactive)
SF-268
  GI50: > 100 µM (inactive)
786-0
  GI50: > 100 µM (inactive)

## CC(C)=CC(=O)OC1C2C(C)=CC(O)C(O)C2(C)C2C3(O)OCC24C(CC(=O)OC14)C(C)C3O (configuration not stated)
HOP-92
  GI50: 0.0552 µM (active)
KM-20L2
  GI50: 0.354 µM (active)
DMS-114
  GI50: 0.0162 µM (active)
UACC-257
  GI50: 0.104 µM (active)
COLO 205
  GI50: 0.778 µM (active)
HT-29
  GI50: 0.137 µM (active)
DMS-273
  GI50: 0.0264 µM (active)
HCC 2998
  GI50: 0.101 µM (active)
HL-60
  GI50: 0.0251 µM (active)
NCI/ADR-RES
  GI50: 17.5 µM (inactive)
SF-268
  GI50: 0.182 µM (active)

## CCOC(=O)/C=C1/Oc2ccccc2C1(C)O (configuration not stated)
HOP-92
  GI50: > 100 µM (inactive)
KM-20L2
  GI50: > 100 µM (inactive)
DMS-114
  GI50: > 100 µM (inactive)
UACC-257
  GI50: > 100 µM (inactive)
COLO 205
  GI50: > 100 µM (inactive)
HT-29
  GI50: > 100 µM (inactive)
DMS-273
  GI50: > 100 µM (inactive)
HCC 2998
  GI50: > 100 µM (inactive)
HL-60
  GI50: > 100 µM (inactive)
SF-268
  GI50: > 100 µM (inactive)
786-0
  GI50: > 100 µM (inactive)

## O=CCCn1[nH]c(=O)ccc1=O
HOP-92
  GI50: > 100 µM (inactive)
KM-20L2
  GI50: > 100 µM (inactive)
DMS-114
  GI50: > 100 µM (inactive)
UACC-257
  GI50: > 100 µM (inactive)
HT-29
  GI50: > 100 µM (inactive)
DMS-273
  GI50: > 100 µM (inactive)
HCC 2998
  GI50: > 100 µM (inactive)
HL-60
  GI50: > 100 µM (inactive)
SR
  GI50: > 100 µM (inactive)
SF-268
  GI50: > 100 µM (inactive)
786-0
  GI50: > 100 µM (inactive)

## CSCC(CO)NC(=O)/C=C/c1c(C)[nH]c(=O)[nH]c1=O (configuration not stated)
HOP-92
  GI50: 318 µM (inactive)
KM-20L2
  GI50: 415 µM (inactive)
DMS-114
  GI50: 164 µM (inactive)
UACC-257
  GI50: 820 µM (inactive)
COLO 205
  GI50: 68.5 µM (inactive)
HT-29
  GI50: > 826 µM (inactive)
DMS-273
  GI50: > 838 µM (inactive)
HCC 2998
  GI50: 85.1 µM (inactive)
HL-60
  GI50: 197 µM (inactive)
NCI/ADR-RES
  GI50: 621 µM (inactive)
SF-268
  GI50: 223 µM (inactive)

## Nc1n[nH]c(CCCCCCCc2nnc(N)[nH]2)n1
DMS-114
  GI50: > 100 µM (inactive)
UACC-257
  GI50: > 100 µM (inactive)
HT-29
  GI50: > 100 µM (inactive)
HCC 2998
  GI50: > 100 µM (inactive)
HL-60
  GI50: > 100 µM (inactive)
SR
  GI50: > 100 µM (inactive)
SF-268
  GI50: > 100 µM (inactive)

## CNc1ccccc1-c1nc2ccccc2c(=O)o1
KM-20L2
  GI50: > 100 µM (inactive)
DMS-114
  GI50: > 100 µM (inactive)
UACC-257
  GI50: > 100 µM (inactive)
COLO 205
  GI50: > 100 µM (inactive)
DMS-273
  GI50: > 100 µM (inactive)
HCC 2998
  GI50: > 100 µM (inactive)
HL-60
  GI50: > 100 µM (inactive)
SR
  GI50: > 100 µM (inactive)
SF-268
  GI50: 32 µM (inactive)
